Legend:
Tryptase beta-1 = Tryptase beta-1 (Homo sapiens, UniProt Q15661); assay: Inhibition of human B tryptase; settings: read-out: Ki app
Homo sapiens = organism: Homo sapiens; assay: Selectivity for tryptase over trypsin
Trypsin = Trypsin (Homo sapiens, UniProt P07477+P07478+P35030); assay: Inhibition of trypsin; assay type: protein assay
Chymase = biological target: T1, Chymase (Homo sapiens, UniProt P23946); assay: Inhibition of chymase; settings: read-out: Ki app
T1 sequence (P23946 whole entry): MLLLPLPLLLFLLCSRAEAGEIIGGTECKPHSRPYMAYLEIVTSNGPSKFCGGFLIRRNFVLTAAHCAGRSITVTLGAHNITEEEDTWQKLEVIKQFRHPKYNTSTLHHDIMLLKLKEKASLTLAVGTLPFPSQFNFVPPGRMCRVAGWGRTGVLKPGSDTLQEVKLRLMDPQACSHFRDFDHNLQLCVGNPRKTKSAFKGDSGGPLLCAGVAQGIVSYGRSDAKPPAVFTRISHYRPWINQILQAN

Plasminogen = Plasminogen (Homo sapiens, UniProt P00747); assay: Inhibition of plasmin; settings: read-out: Ki app
Chain of Plasminogen (P00747 97-580 limits assumed): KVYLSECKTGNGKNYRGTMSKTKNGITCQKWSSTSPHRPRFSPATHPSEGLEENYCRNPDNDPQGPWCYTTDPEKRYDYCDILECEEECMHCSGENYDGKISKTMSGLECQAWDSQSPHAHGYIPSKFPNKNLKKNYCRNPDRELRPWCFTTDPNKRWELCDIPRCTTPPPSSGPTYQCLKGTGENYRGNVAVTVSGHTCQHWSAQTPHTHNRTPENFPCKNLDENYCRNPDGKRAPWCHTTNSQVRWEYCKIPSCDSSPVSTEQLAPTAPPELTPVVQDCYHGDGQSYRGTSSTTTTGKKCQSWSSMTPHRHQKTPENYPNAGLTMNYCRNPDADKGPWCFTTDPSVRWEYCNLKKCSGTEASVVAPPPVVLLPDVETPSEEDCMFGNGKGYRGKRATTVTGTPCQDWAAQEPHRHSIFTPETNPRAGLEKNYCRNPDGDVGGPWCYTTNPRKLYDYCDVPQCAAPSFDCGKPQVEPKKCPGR
Chain of Plasminogen (P00747 581-810 limits assumed): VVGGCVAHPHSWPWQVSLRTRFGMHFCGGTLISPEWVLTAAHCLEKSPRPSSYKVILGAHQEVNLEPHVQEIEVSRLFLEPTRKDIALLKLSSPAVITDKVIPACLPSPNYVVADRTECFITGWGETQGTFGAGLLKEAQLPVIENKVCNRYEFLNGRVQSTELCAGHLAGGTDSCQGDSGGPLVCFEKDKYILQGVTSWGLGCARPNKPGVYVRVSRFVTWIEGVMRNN

Granzyme K = biological target: T2, Granzyme K (Homo sapiens, UniProt P49863); assay: Inhibition of granzyme K; settings: read-out: Ki app
T2 sequence (P49863 whole entry): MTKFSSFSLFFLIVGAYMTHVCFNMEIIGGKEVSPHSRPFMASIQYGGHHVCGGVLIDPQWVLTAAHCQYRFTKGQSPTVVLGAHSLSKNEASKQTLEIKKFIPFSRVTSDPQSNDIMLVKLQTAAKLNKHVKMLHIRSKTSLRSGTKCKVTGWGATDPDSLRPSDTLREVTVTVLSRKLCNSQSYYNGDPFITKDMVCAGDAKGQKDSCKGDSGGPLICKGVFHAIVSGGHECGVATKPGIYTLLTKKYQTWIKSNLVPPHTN

[1] = Inhibition of elastase; design: species or system Homo sapiens; settings: read-out: Ki app
Prothrombin = Prothrombin (Homo sapiens, UniProt P00734); assay: Inhibition of thrombin; settings: read-out: Ki app
[2] = biological target: Urokinase-type plasminogen activator (Homo sapiens, UniProt P00749); assay: Inhibition of urokinase; settings: read-out: Ki app
[3] = biological target: Vitamin K-dependent protein C (Homo sapiens, UniProt P04070); assay: Inhibition of APC; settings: read-out: Ki app
Chain of Vitamin K-dependent protein C (P04070 43-197 limits assumed): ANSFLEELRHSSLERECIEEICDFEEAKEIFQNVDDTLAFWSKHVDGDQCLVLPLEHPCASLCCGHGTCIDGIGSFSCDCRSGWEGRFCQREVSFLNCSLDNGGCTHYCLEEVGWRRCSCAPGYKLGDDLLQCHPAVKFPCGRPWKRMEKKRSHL
Chain of Vitamin K-dependent protein C (P04070 212-461 limits assumed): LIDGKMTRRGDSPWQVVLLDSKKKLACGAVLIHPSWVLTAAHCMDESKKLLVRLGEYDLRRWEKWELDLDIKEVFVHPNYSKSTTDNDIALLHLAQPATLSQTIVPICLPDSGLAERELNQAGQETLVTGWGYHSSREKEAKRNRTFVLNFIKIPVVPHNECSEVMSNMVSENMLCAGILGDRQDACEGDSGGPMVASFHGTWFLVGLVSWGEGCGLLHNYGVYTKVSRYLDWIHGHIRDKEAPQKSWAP

Plasma kallikrein = Plasma kallikrein (Homo sapiens, UniProt P03952); assay: Inhibition of kallikrein; settings: read-out: Ki app
Chain of Plasma kallikrein (P03952 20-390 limits assumed): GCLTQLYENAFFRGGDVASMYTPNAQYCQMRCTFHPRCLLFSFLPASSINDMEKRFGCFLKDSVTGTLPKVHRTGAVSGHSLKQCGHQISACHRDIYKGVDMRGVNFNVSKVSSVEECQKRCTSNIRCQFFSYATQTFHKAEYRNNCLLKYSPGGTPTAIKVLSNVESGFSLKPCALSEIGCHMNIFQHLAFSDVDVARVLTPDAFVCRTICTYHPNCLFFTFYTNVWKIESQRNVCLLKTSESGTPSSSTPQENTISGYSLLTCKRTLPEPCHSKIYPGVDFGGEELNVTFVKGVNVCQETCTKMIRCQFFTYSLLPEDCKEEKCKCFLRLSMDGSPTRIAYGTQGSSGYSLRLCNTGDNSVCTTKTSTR
Chain of Plasma kallikrein (P03952 391-638 limits assumed): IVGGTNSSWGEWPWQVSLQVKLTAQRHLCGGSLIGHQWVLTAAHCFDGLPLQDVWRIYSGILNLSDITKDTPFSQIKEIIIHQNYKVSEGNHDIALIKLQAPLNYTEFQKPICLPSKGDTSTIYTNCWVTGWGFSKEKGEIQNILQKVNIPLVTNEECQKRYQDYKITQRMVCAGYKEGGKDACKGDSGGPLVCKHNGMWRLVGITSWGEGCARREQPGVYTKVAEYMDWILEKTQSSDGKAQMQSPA

Chymotrypsinogen B = Chymotrypsinogen B (Homo sapiens, UniProt P17538); assay: Inhibition of chymotrypsin; settings: read-out: Ki app
Chain of Chymotrypsinogen B (P17538 34-164 limits assumed, other chains not shown): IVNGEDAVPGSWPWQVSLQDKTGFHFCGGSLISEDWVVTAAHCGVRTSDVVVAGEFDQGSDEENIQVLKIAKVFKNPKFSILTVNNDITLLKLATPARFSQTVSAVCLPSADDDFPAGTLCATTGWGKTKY
Chain of Chymotrypsinogen B (P17538 167-263 limits assumed, other chains not shown): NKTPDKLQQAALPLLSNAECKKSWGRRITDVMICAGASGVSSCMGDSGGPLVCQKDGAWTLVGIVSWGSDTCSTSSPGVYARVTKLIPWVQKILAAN

[4] = Cmax in rat at 0.5 mg/kg, iv; assay type: ADME, organism-based; design: dose 0.5 mg/kg, route intravenous; settings: in vivo
[5] = Terminal half life in rat at 0.5 mg/kg, iv; assay type: ADME, organism-based; design: dose 0.5 mg/kg, route intravenous; settings: in vivo
[6] = Steady state volume of distribution in rat at 0.5 mg/kg, iv; assay type: ADME, organism-based; design: dose 0.5 mg/kg, route intravenous; settings: in vivo, read-out: Vss
[7] = Oral bioavailability in rat at 5 mg/kg, po; assay type: ADME, organism-based; settings: in vivo
[8] = Terminal half life in rat at 5 mg/kg, po; assay type: ADME, organism-based; design: dose 5 mg/kg, route oral; settings: in vivo
[9] = Mean residence time in rat at 0.5 mg/kg, iv; assay type: ADME, organism-based; design: dose 0.5 mg/kg, route intravenous; settings: in vivo
[10] = Clearance in rat at 0.5 mg/kg, iv; assay type: ADME, organism-based; design: dose 0.5 mg/kg, route intravenous; settings: in vivo
[11] = AUC in rat at 0.5 mg/kg, iv; assay type: ADME, organism-based; design: dose 0.5 mg/kg, route intravenous; settings: plasma
[12] = Oral absorption in rat at 5 mg/kg, po; assay type: ADME, organism-based; design: dose 5 mg/kg, route oral; settings: in vivo
[13] = Central volume of distribution in rat at 0.5 mg/kg, iv; assay type: ADME, organism-based; design: dose 0.5 mg/kg, route intravenous; settings: in vivo, read-out: Vc

Chain of Tryptase beta-1 (Q15661 whole entry): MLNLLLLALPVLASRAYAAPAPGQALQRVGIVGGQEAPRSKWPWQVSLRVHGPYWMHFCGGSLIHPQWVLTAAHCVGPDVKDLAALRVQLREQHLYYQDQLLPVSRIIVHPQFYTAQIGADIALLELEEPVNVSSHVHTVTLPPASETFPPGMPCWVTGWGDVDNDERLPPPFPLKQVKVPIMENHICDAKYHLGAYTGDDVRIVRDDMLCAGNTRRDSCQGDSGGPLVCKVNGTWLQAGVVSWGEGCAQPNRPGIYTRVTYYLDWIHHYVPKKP

| SMILES | Ki (Tryptase beta-1) | Selectivity ratio (Homo sapiens) | Ki app (Trypsin) | further results |
| --- | --- | --- | --- | --- |
| NCCCC[C@H](NC(=O)C1CC1)C(=O)c1noc(Cc2ccc(OCCc3ccc(Cl)c(Cl)c3)cc2)n1 | 4.6 nM | 10 |  |  |
| Cl.NCCCC[C@H](NC(=O)c1cccc(F)c1)C(=O)c1noc(Cc2ccc(OCCc3ccc(Cl)c(Cl)c3)cc2)n1 | 5.8 nM | 293 | 1700 nM |  |
| Cl.NCCCC[C@H](NC(=O)C(F)(F)F)C(=O)c1noc(Cc2ccc(OCCc3ccc(Cl)c(Cl)c3)cc2)n1 | 2.9 nM | 76 | 220 nM |  |
| Cc1cc(C(=O)N[C@@H](CCCCN)C(=O)c2noc(Cc3ccc(OCCc4ccc(Cl)c(Cl)c4)cc3)n2)c(C)o1.Cl | 46 nM | 85 | 3900 nM |  |
| CC(C)(C)C(=O)N[C@@H](CCCCN)C(=O)c1noc(Cc2ccc(OCCc3ccc(Cl)c(Cl)c3)cc2)n1.Cl | 3.75 nM | 167 | 625 nM |  |
| Cl.NCCCC[C@H](NC(=O)c1ccco1)C(=O)c1noc(Cc2ccc(OCCc3ccc(Cl)c(Cl)c3)cc2)n1 | 2.3 nM | 209 | 480 nM |  |
| CCOC(=O)N[C@@H](CCCCN)C(=O)c1noc(Cc2ccc(OCCc3ccc(Cl)c(Cl)c3)cc2)n1.Cl | 4.7 nM | 81 | 380 nM |  |
| CCOC(=O)N[C@@H](CCCCN)C(=O)c1noc(Cc2ccc(OCCc3ccccc3)cc2)n1 | 5.4 nM |  | 190 nM | Ki (Chymase): > 150000 nM; Ki (Plasminogen): 430 nM; Ki (Granzyme K): > 150000 nM; Ki [1]: > 150000 nM; Ki (Prothrombin): 64000 nM; Ki [2]: > 150000 nM; Ki [3]: > 150000 nM; Ki (Plasma kallikrein): 43000 nM; Ki (Chymotrypsinogen B): > 150000 nM |
| CC(C)OC(=O)N[C@@H](CCCCN)C(=O)c1noc(Cc2ccc(OCCc3ccc(Cl)c(Cl)c3)cc2)n1.Cl | 5 nM | 83 | 415 nM |  |
| COC(=O)N[C@@H](CCCCN)C(=O)c1noc(Cc2ccc(OCCc3ccc(Cl)c(Cl)c3)cc2)n1.Cl | 17 nM | 129 | 2200 nM |  |
| CCCCCC(=O)N[C@@H](CCCCN)C(=O)c1noc(Cc2ccc(OCCc3ccc(Cl)c(Cl)c3)cc2)n1.Cl | 9.8 nM | 18 | 180 nM |  |
| CN(C)C(=O)N[C@@H](CCCCN)C(=O)c1noc(Cc2ccc(OCCc3ccc(Cl)c(Cl)c3)cc2)n1.Cl | 9.6 nM | 89 | 850 nM |  |
| COCCOC(=O)N[C@@H](CCCCN)C(=O)c1noc(Cc2ccc(OCCc3ccc(Cl)c(Cl)c3)cc2)n1.Cl | 5 nM | 100 | 500 nM |  |
| CCN(CC)C(=O)N[C@@H](CCCCN)C(=O)c1noc(Cc2ccc(OCCc3ccc(Cl)c(Cl)c3)cc2)n1.Cl | 18 nM | 133 | 2400 nM |  |
| Cl.NCCCC[C@H](NC(=O)c1ccc(Cl)cc1)C(=O)c1noc(Cc2ccc(OCCc3ccc(Cl)c(Cl)c3)cc2)n1 | 6.55 nM | 389 | 2550 nM |  |
| Cl.NCCCC[C@H](NC(=O)c1ccc(F)cc1)C(=O)c1noc(Cc2ccc(OCCc3ccc(Cl)c(Cl)c3)cc2)n1 |  |  | 1100 nM | Cmax [4]: 1010 nM; half-life [5]: 2.9 h; Vd [6]: 7.8 L/kg; bioavailability [7]: 9%; half-life [8]: 2.25 h; MRT [9]: 2.88 h; clearance [10]: 45 mL/min/kg; AUC [11]: 0.3 µM·h; Fa [12]: 12%; Vd [13]: 0.457 L/kg |
| Cl.NCCCC[C@H](NC(=O)c1ccccc1F)C(=O)c1noc(Cc2ccc(OCCc3ccc(Cl)c(Cl)c3)cc2)n1 | 6.2 nM | 177 | 1100 nM |  |
| Cl.NCCCC[C@H](NC(=O)N1CCOCC1)C(=O)c1noc(Cc2ccc(OCCc3ccc(Cl)c(Cl)c3)cc2)n1 | 5.7 nM | 153 | 870 nM |  |
| COCC(=O)N[C@@H](CCCCN)C(=O)c1noc(Cc2ccc(OCCc3ccc(Cl)c(Cl)c3)cc2)n1.Cl | 3.7 nM | 51 | 190 nM |  |
| Cl.NCCCC[C@H](NC(=O)C1CCCC1)C(=O)c1noc(Cc2ccc(OCCc3ccc(Cl)c(Cl)c3)cc2)n1 | 6.5 nM | 46 | 300 nM |  |
| Cl.NCCCC[C@H](NC(=O)N1CCCC1)C(=O)c1noc(Cc2ccc(OCCc3ccc(Cl)c(Cl)c3)cc2)n1 | 32 nM | 119 | 3800 nM |  |
| Cl.NCCCC[C@H](NC(=O)c1ccc(F)cc1F)C(=O)c1noc(Cc2ccc(OCCc3ccc(Cl)c(Cl)c3)cc2)n1 | 3.25 nM | 354 | 1150 nM |  |
| CC(C)C(=O)N[C@@H](CCCCN)C(=O)c1noc(Cc2ccc(OCCc3ccc(Cl)c(Cl)c3)cc2)n1.Cl | 6.8 nM | 18 | 120 nM |  |
| CC(C)(C)COC(=O)N[C@@H](CCCCN)C(=O)c1noc(Cc2ccc(OCCc3ccc(Cl)c(Cl)c3)cc2)n1.Cl | 11 nM | 173 | 1900 nM |  |
| Cl.NCCCC[C@H](NC(=O)N1CCCCC1)C(=O)c1noc(Cc2ccc(OCCc3ccc(Cl)c(Cl)c3)cc2)n1 | 9.2 nM | 152 | 1400 nM |  |
| Cl.NCCCC[C@H](NC(=O)C1CCOC1)C(=O)c1noc(Cc2ccc(OCCc3ccc(Cl)c(Cl)c3)cc2)n1 (stereo partly drawn) | 22 nM | 50 | 1100 nM |  |
